Test results taken from US20100087788A1, “Anti-infective alcohol catheter solution with chlorhexidine treated catheter” (priority 2006, published 2010).

Legend:
[1] = Solubility of chlorhexidine salts in ethanol (100%) and water; format: physicochemical; settings: for Ethanol Solubility: ethanol (100%)
most microorganisms = settings: Sissons et al. 1996; cited from earlier work
[2] = tested on: S. epidermidis ATCC 35983; settings: ethanol
Description: (§1) Determinations of Minimum Inhibitory Concentration (MIC) and Minimum Bacteriocidal Concentration (MBC) were performed using standard microbiological techniques. Chlorhexidine diacetate was tested at the following μg/mL concentrations: 256, 128, 64, 32, 16, 8, 4, 2, 1, 0.5, 0.25, and 0.125. Ethanol was tested at the following percent (%) concentrations: 50, 40, 30, 25, 20, 15, 12, 10, 7, and 5. Dilutions were prepared in Cationic Adjusted Mueller Hinton Broth (CAMHB). All tests were performed in microtiter plates with a total test volume of 100 μL, including diluted antimicrobial agent and inoculum. Concentrations of antimicrobial agents were prepared at 2× concentration, and 50 μL was added to each well of a microtiter plate, to which 50 μL of inoculum of the test organism was added to give the target test concentration.
(§2) Inoculum was prepared by transfer of isolated colonies from agar plates to 10 mL of trypticase soy broth (TSB), and incubation at 37° C. for 4 hrs. Cells were subsequently centrifuged, and resuspended twice in phosphate buffered saline. The population of this bacterial suspension was determined by reading optical density at 670 nm. Final concentrations of inoculum were adjusted to a range of approximately 5×10^4 cfu/mL, using CAMHB as a diluent. Initial concentrations were verified using the Miles and Misra drop count method. To each test well of a microtiter plate, 50 μl of inoculum was added along with 50 μl of the 2× concentration of the antimicrobial agent being tested. Incubation was at 37° C. for 16 to 20 hours.
(§3) To determine MBC values, 50 μl was removed from each well showing inhibition of growth (MIC and greater). Solutions from these inhibitory concentrations of antimicrobial agent were diluted in CAMHB to concentrations where they would no longer inhibit the growth of the test organism. Recovery counts were obtained by plating aliquots of the diluted material onto TSA plate containing 5% sheep's blood, and incubating 24 hours at 37° C.

C. albicans ATCC 10231 = settings: ethanol
Description: as §1, §2, §3

[3] = tested on: most commonly encountered infectious pathogens; settings: conclusion from Table 1
Description: as §1, §2, §3

E. cloacae ATCC 13047 = settings: ethanol
Description: as §1, §2, §3

P. aeruginosa ATCC 27853 = settings: ethanol
Description: as §1, §2, §3

E. faecalis ATCC 51299 = settings: ethanol
Description: as §1, §2, §3

E. coli ATCC 25922 = settings: ethanol
Description: as §1, §2, §3

S. aureus ATCC 29213 = settings: ethanol
Description: as §1, §2, §3

K. pneumoniae ATCC 10031 = settings: ethanol
Description: as §1, §2, §3

[4] = Release kinetics of chlorhexidine from loaded catheter segments; format: physicochemical; settings: catheter segments 200 micrograms/cm
Description: 5Fr Catheter segments were bulk impregnated with chlorhexidine base (CHX) by soaking in an ethyl acetate solution of CHX and then evaporating the solvent. The chlorhexidine mass per unit length was determined by dissolving the catheter […] extracting the chlorhexidine. The measure mass of chlorhexidine was approximately 200 micrograms per cm. 5Fr catheter segments were similarly impregnated with chlorhexidine diacetate to a level of 200 micrograms/cm by soaking in an ethyl acetate-methanol solution followed by evaporation. These segments were used in Zone of inhibition testing and release kinetics testing.
Release kinetics measurements were performed of chlorhexidine base (CHX) and chlorhexidine diacetate (CHA) loaded catheter segments (200 micrograms/cm) in water and in 25% ethanol lock. One cm long catheter segments were placed in 10 ml of 25% ethanol lock solution. At each sampling point the eluting solution was removed and replaced with fresh solution. The amount of chlorhexidine released was measured by UV absorbance readings at 263 nm on the eluting lock solution relative to a reference curve of chlorhexidine standards prepared to known concentrations in 25% ethanol lock. Cumulative % release was calculated from the measured amount released at each time point and the quantity of chlorhexidine loaded into the catheter segments.

[5] = tested on: E. faecalis, S. aureus, E. coli; experiment: Change of chlorhexidine MBC at subinhibitory ethanol (summary of Table 2); format: cell-based; settings: ethanol at 80% of the ethanol MIC
Description: as §1
as §2, with “To each test well of a microtiter plate, 50 μl of inoculum was added along with 50 μl of the 2× concentration of the antimicrobial agent being tested. Incubation was at 37° C. for 16 to 20 hours.” left out

E. faecalis = experiment: MBC of chlorhexidine diacetate alone and at 80% of the ethanol MIC; format: cell-based
Description: as §1
as §2, with “To each test well of a microtiter plate, 50 μl of inoculum was added along with 50 μl of the 2× concentration of the antimicrobial agent being tested. Incubation was at 37° C. for 16 to 20 hours.” left out

S. aureus = experiment: as above; format: cell-based
From the text: (§4) The synergy of ethanol and chlorhexidine is illustrated in Table 2 by measurement of the minimum bacteriocidal concentration (MBC) of chlorhexidine at ethanol concentrations that are subinhibitory (80% of the ethanol minimum inhibitory concentration).

E. coli = experiment: as above; format: cell-based
From the text: as §4

Laurate
Ethanol Solubility [1]: 200 mg/mL
Water Solubility [1]: 0.01 mg/mL

CCCCC(=O)O.CCCCC(=O)O.N=C(NCCCCCCNC(=N)NC(=N)Nc1ccc(Cl)cc1)NC(=N)Nc1ccc(Cl)cc1 [Valerate]
Ethanol Solubility [1]: 20 mg/mL
Water Solubility [1]: 1.2 mg/mL

CCO [ethanol]
concentration that inhibits the growth of most microorganisms (most microorganisms): 10%
concentrations generally considered bactericidal (most microorganisms): ≥ 40%
MBC [2]: 10-12%
MIC ([2]; CAMHB, 37° C., 16 to 20 hours): 12%
MBC (C. albicans ATCC 10231): 10%
MIC (C. albicans ATCC 10231; CAMHB, 37° C., 16 to 20 hours): 7%
ethanol concentration at which the solution will not inhibit microbial growth [3]: below 7%
ethanol lock concentration cidal towards most commonly encountered infectious pathogens [3]: above 25%
MBC (E. cloacae ATCC 13047): 10%
MIC (E. cloacae ATCC 13047; CAMHB, 37° C., 16 to 20 hours): 7%
MBC (P. aeruginosa ATCC 27853): 12%
MIC (P. aeruginosa ATCC 27853; CAMHB, 37° C., 16 to 20 hours): 7%
MBC (E. faecalis ATCC 51299): 10%
MIC (E. faecalis ATCC 51299; CAMHB, 37° C., 16 to 20 hours): 7%
MBC (E. coli ATCC 25922): 15%
MIC (E. coli ATCC 25922; CAMHB, 37° C., 16 to 20 hours): 10%
MBC (S. aureus ATCC 29213): 25%
MIC (S. aureus ATCC 29213; CAMHB, 37° C., 16 to 20 hours): 12%
MBC (K. pneumoniae ATCC 10031): 25%
MIC (K. pneumoniae ATCC 10031; CAMHB, 37° C., 16 to 20 hours): 10%

CC(=O)O.CC(=O)O.NC(=N\CCCCCC/N=C(N)/N=C(\N)Nc1ccc(Cl)cc1)/N=C(\N)Nc1ccc(Cl)cc1 [CHA, chlorhexidine diacetate]
release of chlorhexidine from catheter into 25% ethanol lock solution, compared with chlorhexidine base (FIG. 2) [4]: releases faster
drop of chlorhexidine MBC in the presence of subinhibitory ethanol concentrations [5]: approximately 50%
MBC for CHA @ 80% MIC ETOH (E. faecalis; ethanol 5.6% (80% of MIC)): 4 µg/mL
MBC for CHA (E. faecalis; no ethanol): 8 µg/mL
MBC for CHA @ 80% MIC ETOH (S. aureus; ethanol 9.6% (80% of MIC)): 1 µg/mL
MBC for CHA (S. aureus; no ethanol): 1 to 2 µg/mL
MBC for CHA @ 80% MIC ETOH (E. coli; ethanol 8% (80% of MIC)): 2 µg/mL
MBC for CHA (E. coli; no ethanol): 4 µg/mL
